Laboratory results taken from US20180133221A1, “ADMINISTRATION OF UBIQUITIN-ACTIVATING ENZYME INHIBITOR AND CHEMOTHERAPEUTIC AGENTS” (Millennium Pharmaceuticals, Inc., priority 2014, published 2018).
Read-outs that look alike come from different tables or passages of the source.

Key:
[1] = test system: PHTX-132Lu non-small cell lung xenograft; conditions: for Tumor Volume Day 21: in mm³ (unit assumed)
Description: The PHTX-132Lu non-small cell lung xenograft model was established from a patient-derived tumor collected during surgery from a person with lung cancer (Poorly Differentiated Adenocarcinoma). PHTX-132Lu tumor fragments (approximately 2×2×3 mm^3) are implanted into the subcutaneous space in the right dorsal flank of female CB-17 SCID mice (age 10 weeks, Charles River Laboratory, Wilmington, Mass.) using a 13-gauge trocar. When the mean tumor volume reached approximately 220 mm^3, the animals were randomized into 12 treatment groups (n=5/group).
(§1) Carboplatin (Teva Pharmaceuticals) is formulated in 0.9% saline and administered by IP injection once weekly (QW) at 25, 50, 60, and 75 mg/kg. The once weekly schedule is also described as every 7 days (Q7D).
(§2) Compound 1 [((1R,2R,3S,4R)-2,3-dihydroxy-4-(2-(3-(trifluoromethylthio)-phenyl)pyrazolo[1,5-a]pyrimidin-7-ylamino)cyclopentyl)methyl sulfamate] is formulated in 10-20% HPbCD in sterile water and administered intravenously (IV) or subcutaneously (SC) on a BIW (twice/week schedule; Monday and Thursday or Tuesday and Friday) for either 2-4 weeks.
(§3) Tumors were measured twice weekly using vernier calipers. Tumor volumes were calculated using the standard formula V=W^2×L/2,). When mean tumor volumes reached approximately 200 mm^3 for PHTX-24C, 220 mm^3 for PHTX-Lu132, 150 mm^3 for CTG-0256, 260 mm^3 for CTG-0486, 185 mm^3 for PHTX-17C, 260 mm^3 for CTG-0165, 150 mm^3 for PHTX-14B in the study of Compound 1 and paclitaxel, 180 mm^3 for PHTX-14B in the study of Compound 1 and docetaxel, 200 mm^3 for SKOV-3, 220 mm^3 for PHTX-02B in the study of Compound 1 and docetaxel, 250 mm^3 for PHTX-02B in the study of Compound 1 and paclitaxel, 195 mm^3 for CTG-0159, 180 mm^3 for CTG-0012 or 150 mm^3 for Calu-6, mice were randomized into groups of n=5-7/arm as described in the tables below, and injected with vehicle, Compound 1 or agents (docetaxel, paclitaxel, oxaliplatin, cisplatin or carboplatin), or the combination of Compound 1 plus one of the agents, at various doses and schedules as described in tables below. Tumor size and body weight were measured approximately twice a week for the duration of the study. Mice are euthanized when their tumor volume reached 10% of their body weight, or when the average tumor volume of a treatment or control group reached approximately 2000 mm^3. Tumor growth continued to be monitored after the dosing period in some studies. Average tumor volume is reported as a function of time for selected arms of selected studies in the Figures.
(§4) Measurements from day 0 to day 14, day 19, day 21, or day 28 are analyzed as specified in Tables below. All tumor volumes have a value of 1 added to them before log10 transformation. For each animal, the log tumor volume at day 0 is subtracted from the log tumor volume on the subsequent days. This difference vs. time is used to calculate an area under the curve (AUC) for each animal using the trapezoid rule. […] The synergy score for the combination of agents A and B is defined as
(§5) 100*(mean(AUCAB)−mean(AUCA)−mean(AUCB)+mean(AUCctl))/mean(AUCctl):
(§6) where AUCAB, AUCA, AUCB, and AUCctl are the AUC values for animals in the combination group, the A group, the B group, and the control group, respectively. The standard error of the synergy score is computed based on the variation in the AUC values among the animals. […] If the P-value is above 0.05, then the combination is considered to be additive. If the P-value is below 0.05, and the synergy score is less than zero, then the combination is considered to be synergistic.

[2] = test system: SKOV-3 ovarian cell-line derived xenograft; assay: SKOV-3 xenograft model, Compound 1 and carboplatin; type: in vivo, nude mice; conditions: for Tumor Volume Day 14: in mm³ (unit assumed)
Method: SKOV-3 is an ovarian cell-line derived xenograft. Ten week old female nude mice (Taconic Farms, Inc) were inoculated subcutaneously in flank (cell suspension) with 4.0×10^6 SKOV-3 cells suspended in serum free DMEM+Matrigel. When the mean tumor volume reached approximately 200 mm^3, the animals were randomized into 12 treatment groups (n=5/group).
as §1, §2, §3, §4, §5, §6

[3] = test system: CTG-0012 human primary triple negative breast cancer model; assay: CTG-0012 xenograft model, Compound 1 and paclitaxel; type: in vivo, Mus musculus/nu/nu mice; conditions: for Tumor Volume Day 21: in mm³ (unit assumed)
Method: (§7) Paclitaxel (Bristol-Myers Squibb Company) is formulated in 0.9% saline and administered by intravenous injection (IV) on every 4 days (Q4D) or once weekly (QW) at 10 and 20 mg/kg. […] Tumors were measured twice weekly using vernier calipers.

[4] = test system: PHTX-02B breast xenograft; assay: PHTX-02B xenograft model, Compound 1 and paclitaxel; type: in vivo, SCID-NOD mice
Method: as §7

[5] = test system: PHTX-02B breast xenograft; assay: PHTX-02B xenograft model, Compound 1 and docetaxel; type: in vivo, SCID-NOD mice; conditions: for Tumor Volume Day 21: in mm³ (unit assumed)
Method: Docetaxel (Henry Schein, Inc., Pittsburgh Pa.) is formulated in 0.9% saline and administered by intravenous injection (IV) once weekly (QW) at 5 mg/kg or 10 mg/kg. […] Tumors were measured twice weekly using vernier calipers.

[6] = test system: CTG-0165 human lung NSCLC xenograft; assay: CTG-0165 xenograft model, Compound 1 and cisplatin; type: in vivo, Mus musculus/nu/nu mice; conditions: for Tumor Volume Day 21: in mm³ (unit assumed)
Method: CTG-0165 tumor fragments (approximately 2×2×3 mm^3) were implanted into the subcutaneous space in the right dorsal flank of female Mus musculus/nu/nu mice (age 6-9 weeks, Harlan Laboratories, Madison, Wis., USA) using a 13-gauge trocar. When the mean tumor volume reached approximately 260 mm^3, the animals were randomized into 8 treatment groups (n=5/group).
Cisplatin (Teva Pharmaceuticals) is formulated in 0.9% saline and administered by IV injection once weekly (QW) at 7.5 mg/kg. The once weekly schedule is also described as every 7 days (Q7D).
as §2, §3, §4, §5, §6

[7] = single agent Compound 1 IV at 5, 10 and 15 mg/kg BIW

SMILES: NS(=O)(=O)OC[C@H]1C[C@@H](Nc2ccnc3cc(-c4cccc(SC(F)(F)F)c4)nn23)[C@H](O)[C@@H]1O [Compound 1, ((1R,2R,3S,4R)-2,3-dihydroxy-4-(2-(3-(trifluoromethylthio)phenyl)pyrazolo[1,5-a]pyrimidin-7-ylamino)cyclopentyl)methyl sulfamate]
- Tumor Volume Day 21 ([1]; 5 mg/kg Compound 1 BIWx3 IV): 882.7
- Tumor Volume Day 21 ([1]; 10 mg/kg Compound 1 BIWx3 IV): 653.5
- Tumor Volume Day 21 ([1]; 15 mg/kg Compound 1 BIWx3 IV): 483.7
- anti-tumor activity compared to vehicle control [1, 7]: modest anti-tumor activity
- Tumor Volume Day 14 ([2]; 5 mg/kg Compound 1 BIWx2 IV): 857.2
- Tumor Volume Day 14 ([2]; 10 mg/kg Compound 1 BIWx2 IV): 883
- Tumor Volume Day 14 ([2]; 15 mg/kg Compound 1 BIWx2 IV): 919.2
- anti-tumor activity compared to vehicle control [2, 7]: modest anti-tumor activity
- Tumor Volume Day 21 ([3]; 6.25 mg/kg Compound 1 BIWx3 IV): 815
- Tumor Volume Day 21 ([3]; 15 mg/kg Compound 1 BIWx3 IV): 185
- Tumor Volume Day 21 ([3]; 20 mg/kg Compound 1 BIWx3 IV): 47.4
- anti-tumor activity compared to vehicle control ([3]; single agent Compound 1 IV at 6.25, 15, and 20 mg/kg BIW for 3 weeks): modest to strong anti-tumor activity
- Tumor Volume Day 19 ([4]; 6.25 mg/kg Compound 1 BIWx3 IV, in mm³ (unit assumed)): 1850.4
- anti-tumor activity compared to vehicle control ([4]; single agent Compound 1 IV at 6.25, and 12.5 mg/kg BIW for 3 weeks): minimal to modest anti-tumor activity
- Tumor Volume Day 21 ([5]; 7.5 mg/kg Compound 1 BIWx3 SC): 596.5
- Tumor Volume Day 21 ([5]; 15 mg/kg Compound 1 BIWx3 SC): 324.8
- Tumor Volume Day 21 ([5]; 20 mg/kg Compound 1 BIWx3 IV): 178.8
- Tumor Volume Day 21 ([5]; 20 mg/kg Compound 1 BIWx3 SC): 185
- tumor growth compared to the vehicle control group ([5]; single agent Compound 1 SC at 7.5, 15 and 20 mg/kg BIW, IV also 20 mg/kg BIW): inhibited tumor growth
- Tumor Volume Day 21 ([6]; 6.25 mg/kg Compound 1 BIWx3 IV): 988.8
- Tumor Volume Day 21 ([6]; 15 mg/kg Compound 1 BIWx3 IV): 1624.9
- Tumor Volume Day 21 ([6]; 20 mg/kg Compound 1 BIWx3 IV): 1476.3
- anti-tumor activity compared to vehicle control ([6]; single agent Compound 1 IV at 20, 15, 6.25 mg/kg BIW): modest to weak anti-tumor activity
